Columns and labels:
[1] = tested on: Coniophora puteana BAM Ebw. 15; test: Bravery test (closely based on EN 113) on impregnated wood test specimens, preventive effect against wood-destroying fungi; assay type: cell-based; conditions: test fungus CP, Pinus spp. (southern yellow pine) specimens 40x15x4 mm, loss in weight after 6 weeks, <3% by weight = satisfactory; for Limits of the effectiveness, with leaching (EN 84): with leaching according to EN 84
Method: (§1) The limits of the effectiveness of the compositions according to the invention with regard to wood-destroying basidiomycetes were determined on wood test specimens of Pinus spp. (southern yellow pine) with the dimensions 40×15×4 mm. The test method on comminuted wood test specimens, known as the Bravery test, is closely based on EN 113 and is used to determine the preventive effect of wood preservatives against wood-destroying fungi (see in this connection A. F. Bravery, Intern. Res. Group Wood Pres., Doc. No. IRG/WP/2113, 5S., Stockholm, 1978). The wood test specimens impregnated with the composition according to the invention were tested without or with the constraint of leaching according to EN 84. […] Coniophora puteana BAM Ebw. 15 and Poria placenta FPRL 280 were used as test fungi. The destruction of the wood caused by fungal infection was registered by the loss in weight of the test woods, which was determined after 6 weeks. […] The concentration limit of the effectiveness is given in two concentrations. […] The limits of the effectiveness are represented in table 4. For comparison, the values determined for a solution of the active substance in acetone are given.

[2] = tested on: Poria placenta FPRL 280; test: as above; assay type: cell-based; conditions: test fungus PP, Pinus spp. (southern yellow pine) specimens 40x15x4 mm, loss in weight after 6 weeks, <3% by weight = satisfactory; for Limits of the effectiveness, with leaching (EN 84): with leaching according to EN 84
Method: as §1

Row | Compound | Limits of the effectiveness, with leaching (EN 84) [1] | Limits of the effectiveness, without leaching [1] [kg/m^3] | Limits of the effectiveness, with leaching (EN 84) [2] | Limits of the effectiveness, without leaching [2]
1 | Fc1ccc([C@]2(Cn3cncn3)O[C@H]2c2ccccc2Cl)cc1 (racemic) [Solution of epoxiconazole, epoxiconazole] | 0.11-0.16 kg/m^3 | <0.19 | 0.11-0.18 kg/m^3 | <0.19 kg/m^3
2 | CC(C)(C)C(O)(CCc1ccc(Cl)cc1)Cn1cncn1 (centres unmarked) [Solution of tebuconazole, tebuconazole] | <0.054 kg/m^3 | <0.052 | 0.095-0.152 kg/m^3 | 0.102-0.153 kg/m^3

Reference: patent US10420339B2, “Aqueous fungicidal composition and use thereof for combating harmful micro organisms” (BASF SE, priority 2004, dated 2019)
